± gives the standard deviation of the averaged measurements.
Tested on: McpC ligand-binding domain (Salmonella Typhimurium SL1344)
Experiment: protein melting temperature (Tm) in presence of compound (degrees C); higher = more thermal stabilisation (possible ligand binding)
Conditions: compound stock concentration: 10-20 mM, 2 uL in 10 uL reaction

Row | SMILES | protein melting temperature (Biolog plate: PM03B) | protein melting temperature (Biolog plate: PM01) | also measured
1 | OC[C@H]1O[C@@](CO)(O[C@H]2O[C@H](CO)[C@@H](O)[C@H](O)[C@H]2O)[C@@H](O[C@H]2O[C@H](CO)[C@@H](O)[C@H](O)[C@H]2O)[C@@H]1O [D-Melezitose] | – | – | protein melting temperature (Biolog plate: PM02A): 44.5
2 | CSCC[C@@H](N)C(=O)O [D-Methionine] | – | – | protein melting temperature (Biolog plate: PM04A): 43.7
3 | CC(C)(CO)[C@@H](O)C(=O)NCCC(=O)O [D-Pantothenic acid] | – | – | protein melting temperature (Biolog plate: PM05): 43.7
4 | OC[C@H]1O[C@H](OC[C@H]2O[C@H](O[C@]3(CO)O[C@H](CO)[C@@H](O)[C@@H]3O)[C@H](O)[C@@H](O)[C@@H]2O)[C@H](O)[C@@H](O)[C@H]1O [D-Raffinose] | – | – | protein melting temperature (Biolog plate: PM02A): 44.4
5 | O=C1O[C@H](CO)[C@@H](O)[C@H]1O [D-Ribono-1,4-Lactone] | – | – | protein melting temperature (Biolog plate: PM02A): 44.4
6 | O=C(CO)[C@@H](O)[C@@H](O)[C@H](O)CO [D-Tagatose] | – | – | protein melting temperature (Biolog plate: PM02A): 44
7 | C[C@H](O)[C@@H](N)C(=O)O [D-Threonine] | – | 44 | –
8 | CC(C)[C@@H](N)C(=O)O [D-Valine] | 44.7 | – | –
9 | CC(=O)N(O)CCCCCNC(=O)CCC(=O)N(O)CCCCCNC(=O)CCC(=O)N(O)CCCCCN [Deferoxamine] | – | – | protein melting temperature (Biolog plate: PM05): 44.4
10 | OC[C@H]1OC(O[C@H]2[C@H](O)[C@@H](O)C(O[C@H]3[C@H](O)[C@@H](O)[C@@H](O)O[C@@H]3CO)O[C@@H]2CO)[C@H](O)[C@@H](O)[C@@H]1O (stereo partly drawn) [Dextrin] | – | – | protein melting temperature (Biolog plate: PM02A): 44
11 | OP(O)(=S)S [Dithiophosphate] | – | – | protein melting temperature (Biolog plate: PM04A): 43.6 ± 0.59
12 | NCCO [Ethanolamine] | 44.4 | – | –
13 | CCN [Ethylamine] | 44.7 | – | –
14 | Nc1nc(=O)c2nc(CNc3ccc(C(=O)N[C@@H](CCC(=O)O)C(=O)O)cc3)cnc2[nH]1 [Folic acid] | – | – | protein melting temperature (Biolog plate: PM05): 43.8
15 | NC=O [Formamide] | 45.6 | – | –
16 | O=C(O)/C=C/C(=O)O [Fumaric acid] | – | 44.6 | –
17 | O=C[C@H](O)[C@@H](O)[C@H](O)[C@H](O)CO[C@@H]1O[C@H](CO)[C@@H](O)[C@H](O)[C@H]1O [Gentiobiose] | – | – | protein melting temperature (Biolog plate: PM02A): 44.5
18 | N[C@@H](CCC(=O)N[C@@H](CS)C(=O)NCC(=O)O)C(=O)O [Glutathione] | – | – | protein melting temperature (Biolog plate: PM04A): 43.7; protein melting temperature (Biolog plate: PM05): 43.6
19 | NCC(=O)N1CCC[C@H]1C(=O)O [Gly-Pro] | – | 44.2 | –
20 | NCC(=O)O [Glycine] | 44.8 | – | protein melting temperature (Biolog plate: PM02A): 44.4; protein melting temperature (Biolog plate: PM05): 43.9

Row | SMILES | protein melting temperature (Biolog plate: PM03B) | protein melting temperature (Biolog plate: PM01) | also measured
21 | OC[C@H]1O[C@H](OC[C@H]2O[C@H](O[C@H]3[C@H](O)[C@@H](O)[C@@H](O)O[C@@H]3CO)[C@H](O)[C@@H](O)[C@@H]2O[C@H]2O[C@H](CO)[C@@H](O)[C@H](O)[C@H]2O)[C@H](O)[C@@H](O)[C@@H]1O [Glycogen] | – | – | protein melting temperature (Biolog plate: PM02A): 44.8
22 | Nc1nc2[nH]cnc2c(=O)[nH]1 [Guanine] | 44.7 | – | protein melting temperature (Biolog plate: PM05): 44.4
23 | Nc1nc2c(ncn2[C@@H]2O[C@H](CO)[C@@H](O)[C@H]2OP(=O)(O)O)c(=O)[nH]1 [Guanosine 2`-Monophosphate] | – | – | protein melting temperature (Biolog plate: PM04A): 44
24 | Nc1nc2c(ncn2[C@@H]2O[C@H](CO)[C@@H](OP(=O)(O)O)[C@H]2O)c(=O)[nH]1 [Guanosine 3`-Monophosphate] | – | – | protein melting temperature (Biolog plate: PM04A): 43.9
25 | Nc1nc2c(ncn2[C@@H]2O[C@H](COP(=O)(O)O)[C@@H](O)[C@H]2O)c(=O)[nH]1 [Guanosine 5`-Monophosphate] | – | – | protein melting temperature (Biolog plate: PM04A): 43.9
26 | NCCc1c[nH]cn1 [Histamine] | 45.1 | – | –
27 | O=C(O)[C@@H]1C[C@@H](O)CN1 [Hydroxy-L-Proline] | – | – | protein melting temperature (Biolog plate: PM02A): 44.2; protein melting temperature (Biolog plate: PM05): 43.8
28 | O=PO [Hypophosphite] | – | – | protein melting temperature (Biolog plate: PM04A): 44.1
29 | NCCS(=O)O [Hypotaurine] | – | – | protein melting temperature (Biolog plate: PM04A): 44.5
30 | O=c1[nH]cnc2nc[nH]c12 [Hypoxanthine] | – | – | protein melting temperature (Biolog plate: PM05): 44
31 | C[C@H](N)C(=O)O [L-Alanine] | 45.6 | 44.8 | protein melting temperature (Biolog plate: PM05): 44.9
32 | OC[C@H](O)C(O)[C@@H](O)CO [L-Arabitol] | – | – | protein melting temperature (Biolog plate: PM02A): 43.8
33 | N=C(N)NCCC[C@H](N)C(=O)O [L-Arginine] | 45.4 | – | protein melting temperature (Biolog plate: PM02A): 44.2; protein melting temperature (Biolog plate: PM05): 44.6
34 | NC(=O)C[C@H](N)C(=O)O [L-Asparagine] | 45.7 | 44.4 | protein melting temperature (Biolog plate: PM05): 44.5
35 | NC(=O)NCCC[C@H](N)C(=O)O [L-Citrulline] | 44.8 | – | protein melting temperature (Biolog plate: PM05): 43.8
36 | N[C@@H](CS(=O)(=O)O)C(=O)O [L-Cysteic acid] | – | – | protein melting temperature (Biolog plate: PM04A): 43.1
37 | N[C@@H](CS(=O)O)C(=O)O [L-Cysteine Sulfinic acid] | – | – | protein melting temperature (Biolog plate: PM04A): 43
38 | N[C@@H](CSCSC[C@H](N)C(=O)O)C(=O)O [L-Djenkolic acid] | – | – | protein melting temperature (Biolog plate: PM04A): 44.6
39 | C[C@H](O)[C@@H](O)[C@@H](O)[C@H](O)C=O [L-Fucose] | – | 44.7 | –

Continued, in another order:

Row | protein melting temperature (Biolog plate: PM03B) | protein melting temperature (Biolog plate: PM01) | SMILES | also measured
40 | 44.6 | – | N[C@@H]1C(O)O[C@H](CO)[C@@H](O)[C@@H]1O (stereo partly drawn) [D-Mannosamine] | –
41 | – | 44.2 | OC[C@H]1OC(O)[C@@H](O)[C@@H](O)[C@@H]1O (stereo partly drawn) [D-Mannose] | –
42 | – | 44.7 | OC[C@H]1O[C@H](OC[C@H]2OC(O)[C@H](O)[C@@H](O)[C@@H]2O)[C@H](O)[C@@H](O)[C@H]1O (stereo partly drawn) [D-Melibiose] | –
43 | – | 45 | OCC1(O)OC[C@@H](O)[C@@H](O)[C@H]1O (stereo partly drawn) [D-Psicose] | –
44 | – | 44.2 | O[C@@H]1[C@H](O)[C@H](O)CO[C@H]1O [D-Ribose] | –
45 | – | 44.4 | O=C(O)[C@@H](O)[C@@H](O)[C@H](O)[C@@H](O)C(=O)O [D-Saccharic acid] | –
46 | – | 45 | OC[C@@H](O)[C@@H](O)[C@H](O)[C@@H](O)CO [D-Sorbitol] | –
47 | – | 43.9 | OC[C@H]1O[C@H](O[C@H]2O[C@H](CO)[C@@H](O)[C@H](O)[C@H]2O)[C@H](O)[C@@H](O)[C@@H]1O [D-Trehalose] | –
48 | – | 44.6 | OC[C@@H](O)[C@H](O)[C@H](O)[C@@H](O)CO [Dulcitol] | –
49 | 45.7 | 44.9 | NC(=O)[C@H]1O[C@@H](O)[C@H](O)[C@@H](O)[C@@H]1O [Glucuronamide] | –
50 | 44.5 | – | NCC(=O)N[C@@H](CC(N)=O)C(=O)O [Gly-Asn] | –
51 | – | 44.4 | NCC(=O)N[C@@H](CC(=O)O)C(=O)O [Gly-Asp] | –
52 | 45.2 | – | NCC(=O)N[C@@H](CCC(N)=O)C(=O)O [Gly-Gln] | –
53 | 45.1 | 44.9 | NCC(=O)N[C@@H](CCC(=O)O)C(=O)O [Gly-Glu] | –
54 | 45.2 | – | CSCC[C@H](NC(=O)CN)C(=O)O [Gly-Met] | protein melting temperature (Biolog plate: PM04A): 43.8
55 | 45.5 | – | Nc1nc2c(ncn2[C@@H]2O[C@H](CO)[C@@H](O)[C@H]2O)c(=O)[nH]1 [Guanosine] | protein melting temperature (Biolog plate: PM05): 44.5
56 | 44.6 | 44.4 | O=c1[nH]cnc2c1ncn2[C@@H]1O[C@H](CO)[C@@H](O)[C@H]1O [Inosine] | protein melting temperature (Biolog plate: PM05): 44.6
57 | – | 44.5 | O[C@@H]1[C@@H](O)[C@@H](O)CO[C@H]1O [L-Arabinose] | –
58 | 45.4 | 44.5 | N[C@@H](CC(=O)O)C(=O)O [L-Aspartic acid] | protein melting temperature (Biolog plate: PM05): 44.2
